Test results published in patent publication US20180072997A1, “INHIBITORS OF HUMAN IMMUNODEFICIENCY VIRUS REPLICATION” (ViiV HEATHCARE UK (NO.5) LIMITED, priority 2015, published 2018).

Assays:
uninfected MT2 cells = test: Compound cytotoxicity, XTT-based colorimetric assay; format: cell-based; conditions: day 4, XTT
Summary of the method: (§1)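 Run under the antiviral-assay protocol but without virus. Viability was read on day 4 and CC50 values were derived from the readout.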

[1] = system: recombinant NL4-3 virus (Renilla luciferase in nef) in MT-2 cells; test: whole plant or invertebrate; format: cell-based, HIV; conditions: luciferase activity
Summary of the method: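 MT-2 cells infected for 4-5 days with NL4-3 reporter virus (Renilla luciferase replacing part of nef, produced by transfection of 293T cells) in the presence of serial compound dilutions. Antiviral activity quantified by luciferase activity read with a live-cell substrate.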

[2] = Compound cytotoxicity, XTT-based colorimetric assay; format: cell-based; conditions: human, uninfected MT2 cells, day 4, XTT
Summary of the method: as §1

[3] = MT-2 cells infected for 4-5 days with recombinant NL4-3 Renilla luciferase virus
[4] = Renilla, NL43, MT-2 cells infected for 4-5 days with recombinant NL4-3 Renilla luciferase virus

| Compound | CC50 (uninfected MT2 cells) [µM] | EC50 [1, 3] [µM] | CC50 at 4 days [2] [µM] | EC50 [1, 4] [µM] |
| --- | --- | --- | --- | --- |
| COc1ccc(N(C)C(=O)[C@H](Cc2ccccc2)NC(=O)C=C(C)CC(=O)N[C@@H](Cc2ccccc2)C(=O)N(C)c2ccc(OC)cc2)cc1 (single isomer, unassigned) [Example 114] | 27.1 | 1.78 | – | – |
| COc1ccc(N(C)C(=O)[C@H](Cc2cc(F)cc(F)c2)NC(=O)C(C)n2c(=O)n(C(C)C(=O)N[C@@H](Cc3cc(F)cc(F)c3)C(=O)N(C)c3ccc(OC)cc3)c3ccccc32)cc1 (single isomer, unassigned) [Example 133] | 13.9 | 0.41 | – | – |
| COc1ccc(N(C)C(=O)[C@H](Cc2ccccc2)NC(=O)C(C)n2c(=O)n(C(C)C(=O)N[C@@H](Cc3ccccc3)C(=O)N(C)c3ccc(OC)cc3)c3ccccc32)cc1 (single isomer, unassigned) [Example 134] | 10.8 | 0.82 | – | – |
| C=CCCN(C(=O)[C@H](Cc1cc(F)cc(F)c1)NC(=O)NS(=O)(=O)N[C@@H](Cc1cc(F)cc(F)c1)C(=O)N(CCC=C)c1ccc2scnc2c1)c1ccc2scnc2c1 (single isomer, unassigned) [Example 142] | 17.4 | 0.82 | – | – |
| C=CCN(C(=O)[C@H](Cc1cc(F)cc(F)c1)NC(=O)c1nccnc1C(=O)N[C@@H](Cc1cc(F)cc(F)c1)C(=O)N(CC=C)c1ccc(OC)cc1)c1ccc(OC)cc1 [Example 212] | – | – | ≥ 100 | 3.73 |
| C=CCN(C(=O)[C@H](Cc1cc(F)cc(F)c1)NC(=O)NS(=O)(=O)N[C@@H](Cc1cc(F)cc(F)c1)C(=O)N(CC=C)c1ccc2nccnc2c1)c1ccc2nccnc2c1 [Example 213] | – | – | ≥ 100 | 8.21 |
| CN(C(=O)[C@H](Cc1cc(F)cc(F)c1)NC(=O)NS(=O)(=O)N[C@@H](Cc1cc(F)cc(F)c1)C(=O)N(C)c1ccc(OC(F)F)nc1)c1ccc(OC(F)F)nc1 [Example 214] | – | – | 43.8 | 0.01 |
| CN(C(=O)[C@H](Cc1cc(F)cc(F)c1)NC(=O)NS(=O)(=O)N[C@@H](Cc1cc(F)cc(F)c1)C(=O)N(C)c1ccc(F)c(F)c1)c1ccc(F)c(F)c1 [Example 215] | – | – | 34.5 | 0.31 |
| Cc1ccc(N(C)C(=O)[C@H](Cc2ccccc2)NC(=O)NS(=O)(=O)N[C@@H](Cc2ccccc2)C(=O)N(C)c2ccc(C)c(Cl)c2)cc1Cl [Example 220] | – | – | 16.7 | 3.8 |
| CN(C(=O)[C@H](Cc1cc(F)cc(F)c1)NC(=O)N[C@@H](Cc1cc(F)cc(F)c1)C(=O)N(C)c1ccc2scnc2c1)c1ccc2scnc2c1 [Example 221] | – | – | ≥ 100 | 0.52 |
| C=CCCN(C(=O)[C@H](Cc1ccccc1)NC(=O)NS(=O)(=O)N[C@@H](Cc1ccccc1)C(=O)N(CC=C)c1ccc(OC)nc1)c1ccc(OC)nc1 [Example 223] | – | – | ≥ 25 | 1.5 |
| Cc1cc(F)cc(N(C)C(=O)[C@H](Cc2ccccc2)NC(=O)NS(=O)(=O)N[C@@H](Cc2ccccc2)C(=O)N(C)c2cc(C)cc(F)c2)c1 [Example 224] | – | – | 46 | 3.91 |
| Cc1ncc(N(C)C(=O)[C@H](Cc2cc(F)cc(F)c2)NC(=O)NS(=O)(=O)N[C@@H](Cc2cc(F)cc(F)c2)C(=O)N(C)c2cnc(C)c(Cl)c2)cc1Cl [Example 225] | – | – | 2.3 | 0.87 |
| CN(C(=O)[C@H](Cc1cc(F)cc(F)c1)NC(=O)NS(=O)(=O)N[C@@H](Cc1cc(F)cc(F)c1)C(=O)N(C)c1cnc2scnc2c1)c1cnc2scnc2c1 [Example 226] | – | – | ≥ 100 | 8.92 |
| Cc1cc(N(C)C(=O)[C@H](Cc2ccccc2)NC(=O)NS(=O)(=O)N[C@@H](Cc2ccccc2)C(=O)N(C)c2ccc(C#N)c(C)c2)ccc1C#N [Example 228] | – | – | 93.5 | 2.74 |
| Cc1cc(N(C)C(=O)[C@H](Cc2ccccc2)NC(=O)NS(=O)(=O)N[C@@H](Cc2ccccc2)C(=O)N(C)c2ccc(F)c(C)c2)ccc1F [Example 229] | – | – | 64.7 | 2.64 |
| CN(C(=O)[C@H](Cc1cc(F)cc(F)c1)NC(=O)c1ccc(F)c(C(=O)N[C@@H](Cc2cc(F)cc(F)c2)C(=O)N(C)c2ccc(C3CC3)cc2)c1)c1ccc(C2CC2)cc1 [Example 230] | – | – | ≥ 100 | 0.02 |
| COc1ccc(N(C)C(=O)[C@H](Cc2cc(F)cc(F)c2)NC(=O)CN2c3ccccc3N(CC(=O)N[C@@H](Cc3cc(F)cc(F)c3)C(=O)N(C)c3ccc(OC)c(F)c3)S2(=O)=O)cc1F [Example 231] | – | – | ≥ 100 | 0.04 |
| COc1ccc(N(C)C(=O)[C@H](Cc2cc(F)cc(F)c2)NC(=O)c2ccc(F)c(C(=O)N[C@@H](Cc3cc(F)cc(F)c3)C(=O)N(C)c3ccc(OC)c(F)c3)c2)cc1F [Example 232] | – | – | ≥ 33.3 | 0.18 |
| COc1ccc(N(C)C(=O)[C@H](Cc2cc(F)cc(F)c2)NC(=O)NS(=O)(=O)N[C@@H](Cc2cc(F)cc(F)c2)C(=O)N(C)c2ccc(OC)c(F)c2)cc1F [Example 233] | – | – | 35.8 | 0.03 |
| CC#CCN(C(=O)[C@H](Cc1cc(F)cc(F)c1)NC(=O)c1cc(F)c(F)cc1C(=O)N[C@@H](Cc1cc(F)cc(F)c1)C(=O)N(CC#CC)c1ccc(OC)cc1)c1ccc(OC)cc1 [Example 234] | – | – | 95.3 | 6.83 |
| Cc1cc(N(C)C(=O)[C@H](Cc2cc(F)cc(F)c2)NC(=O)NS(=O)(=O)N[C@@H](Cc2cc(F)cc(F)c2)C(=O)N(C)c2cnc(C)c(C)c2)cnc1C [Example 235] | – | – | ≥ 100 | 7 |
| CN(C(=O)[C@H](Cc1cc(F)cc(F)c1)NC(=O)NS(=O)(=O)N[C@@H](Cc1cc(F)cc(F)c1)C(=O)N(C)c1cccnc1)c1cccnc1 [Example 236] | – | – | ≥ 100 | 4.14 |
| CN(C(=O)[C@H](Cc1cc(F)cc(F)c1)NC(=O)NS(=O)(=O)N[C@@H](Cc1cc(F)cc(F)c1)C(=O)N(C)c1ccc2sc(=O)n(C)c2c1)c1ccc2sc(=O)n(C)c2c1 [Example 237] | – | – | 71.9 | 0.27 |
| Cc1nc2c(F)c(N(C)C(=O)[C@H](Cc3cc(F)cc(F)c3)NC(=O)NS(=O)(=O)N[C@@H](Cc3cc(F)cc(F)c3)C(=O)N(C)c3ccc4sc(C)nc4c3F)ccc2s1 [Example 239] | – | – | ≥ 100 | 0.86 |
| COc1ccc(N(C)C(=O)[C@H](Cc2cc(F)cc(F)c2)NC(=O)c2cc(F)c(F)cc2C(=O)N[C@@H](Cc2cc(F)cc(F)c2)C(=O)N(C)c2ccc(OC)cc2)cc1 [Example 254] | – | – | 10 | 0.09 |
| COc1ccc(N(C)C(=O)[C@H](Cc2cc(F)cc(F)c2)NC(=O)c2cc(Cl)c(Cl)cc2C(=O)N[C@@H](Cc2cc(F)cc(F)c2)C(=O)N(C)c2ccc(OC)cc2)cc1 [Example 255] | – | – | 10 | 0.08 |
